Measured values from PubChem BioAssay (NCI).
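Values below derive from 48-hour exposures of cells grown in 96-well plates, with endpoints linearly interpolated between the two concentrations bracketing the appropriate inhibition level. At the GI50, growth is halved. TGI is the concentration that stops growth completely.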

Columns and labels:
Assay in all cases: growth of human tumour cells (NCI), 48 h
HCT-116 colon = tested on: HCT-116 colon
UACC-257 melanoma = tested on: UACC-257 melanoma
EKVX NSCLC = tested on: EKVX NSCLC
SF-539 CNS = tested on: SF-539 CNS
NCI/ADR-RES ovarian = tested on: NCI/ADR-RES ovarian
BT-549 breast = tested on: BT-549 breast
HCC-2998 colon = tested on: HCC-2998 colon
NCI-H23 lung = tested on: NCI-H23 lung
OVCAR-8 ovarian = tested on: OVCAR-8 ovarian
SN12C renal = tested on: SN12C renal
HOP-62 NSCLC = tested on: HOP-62 NSCLC
OVCAR-4 ovarian = tested on: OVCAR-4 ovarian
COLO 205 colon = tested on: COLO 205 colon
UO-31 renal = tested on: UO-31 renal
HT29 colon = tested on: HT29 colon
NCI-H522 lung = tested on: NCI-H522 lung
MDA-MB-231 breast = tested on: MDA-MB-231 breast
SK-MEL-28 melanoma = tested on: SK-MEL-28 melanoma
IGROV1 ovarian = tested on: IGROV1 ovarian
T-47D breast = tested on: T-47D breast
CAKI-1 renal = tested on: CAKI-1 renal
SK-OV-3 ovarian = tested on: SK-OV-3 ovarian
MCF7 breast = tested on: MCF7 breast
OVCAR-3 ovarian = tested on: OVCAR-3 ovarian
UACC-62 melanoma = tested on: UACC-62 melanoma
HOP-92 NSCLC = tested on: HOP-92 NSCLC
LOX IMVI melanoma = tested on: LOX IMVI melanoma
786-0 renal = tested on: 786-0 renal
SNB-19 CNS = tested on: SNB-19 CNS
A549 NSCLC = tested on: A549 NSCLC
SF-295 CNS = tested on: SF-295 CNS
U251 CNS = tested on: U251 CNS
CCRF-CEM leukemia = tested on: CCRF-CEM leukemia
RXF 393 renal = tested on: RXF 393 renal
SR leukemia = tested on: SR leukemia
KM12 colon = tested on: KM12 colon
HS 578T breast = tested on: HS 578T breast
HL-60(TB) leukemia = tested on: HL-60(TB) leukemia
SK-MEL-5 melanoma = tested on: SK-MEL-5 melanoma
K-562 leukemia = tested on: K-562 leukemia
SNB-75 CNS = tested on: SNB-75 CNS
PC-3 prostate = tested on: PC-3 prostate
SW-620 colon = tested on: SW-620 colon
HCT-15 colon = tested on: HCT-15 colon
A498 renal = tested on: A498 renal
OVCAR-5 ovarian = tested on: OVCAR-5 ovarian
NCI-H460 lung = tested on: NCI-H460 lung
ACHN renal = tested on: ACHN renal
MOLT-4 leukemia = tested on: MOLT-4 leukemia
DU-145 prostate = tested on: DU-145 prostate
MDA-MB-435 = tested on: MDA-MB-435
MALME-3M melanoma = tested on: MALME-3M melanoma
NCI-H226 lung = tested on: NCI-H226 lung
SF-268 CNS = tested on: SF-268 CNS
M14 melanoma = tested on: M14 melanoma
TK-10 renal = tested on: TK-10 renal
SK-MEL-2 melanoma = tested on: SK-MEL-2 melanoma
RPMI-8226 leukemia = tested on: RPMI-8226 leukemia

## COc1cccc(NC2=C(Cl)C(=O)N(Cc3ccc(Cl)cc3)C2=O)c1
HCT-116 colon
  GI50: 1.59 µM
  TGI: 13.5 µM
UACC-257 melanoma
  GI50: 3.12 µM
  TGI: 30.3 µM
EKVX NSCLC
  GI50: 12.5 µM
  TGI: 38.8 µM
SF-539 CNS
  GI50: 1.73 µM
  TGI: 5.7 µM
NCI/ADR-RES ovarian
  GI50: 1.22 µM
  TGI: 5.39 µM
BT-549 breast
  GI50: 0.655 µM
  TGI: 4.18 µM
HCC-2998 colon
  GI50: 2.64 µM
  TGI: 12.7 µM
NCI-H23 lung
  GI50: 2.84 µM
  TGI: 9.81 µM
OVCAR-8 ovarian
  GI50: 1.82 µM
  TGI: > 43.1 µM
SN12C renal
  GI50: 2.61 µM
  TGI: 12.9 µM
HOP-62 NSCLC
  GI50: 2.4 µM
  TGI: 12.3 µM
OVCAR-4 ovarian
  GI50: 9.69 µM
  TGI: > 71.5 µM
COLO 205 colon
  GI50: 4.96 µM
  TGI: 39.8 µM
UO-31 renal
  GI50: 7.88 µM
  TGI: 31.7 µM
HT29 colon
  GI50: 2.72 µM
  TGI: > 100 µM
NCI-H522 lung
  GI50: 4.76 µM
  TGI: 22.9 µM
MDA-MB-231 breast
  GI50: 2.15 µM
SK-MEL-28 melanoma
  GI50: 8.37 µM
  TGI: 36.3 µM
IGROV1 ovarian
  GI50: 11.9 µM
  TGI: > 37.4 µM
T-47D breast
  GI50: 10.9 µM
  TGI: > 100 µM
CAKI-1 renal
  GI50: 2.25 µM
  TGI: 17.5 µM
SK-OV-3 ovarian
  GI50: 8.09 µM
  TGI: 60.6 µM
MCF7 breast
  GI50: 2.09 µM
  TGI: > 38.8 µM
OVCAR-3 ovarian
  GI50: 1.62 µM
  TGI: 7.89 µM
UACC-62 melanoma
  GI50: 1.97 µM
  TGI: 18.3 µM
HOP-92 NSCLC
  GI50: 13.1 µM
  TGI: 35.4 µM
LOX IMVI melanoma
  GI50: 1.45 µM
  TGI: > 35.3 µM
786-0 renal
  GI50: 1.54 µM
  TGI: 8.39 µM
SNB-19 CNS
  GI50: 8.25 µM
  TGI: > 100 µM
A549 NSCLC
  GI50: 2.67 µM
  TGI: 26.8 µM
SF-295 CNS
  GI50: 2.35 µM
  TGI: 12.8 µM
U251 CNS
  GI50: 1.24 µM
  TGI: > 34.6 µM
CCRF-CEM leukemia
  TGI: > 68.9 µM
RXF 393 renal
  GI50: 0.788 µM
  TGI: 6.26 µM
SR leukemia
  GI50: 0.261 µM
KM12 colon
  GI50: 2.34 µM
  TGI: 30.5 µM
HS 578T breast
  GI50: 3.21 µM
  TGI: 13.3 µM
HL-60(TB) leukemia
  GI50: 3.15 µM
  TGI: 60.8 µM
SK-MEL-5 melanoma
  GI50: 1.21 µM
  TGI: 6.09 µM
K-562 leukemia
  GI50: 0.801 µM
  TGI: > 46.3 µM
SNB-75 CNS
  GI50: 3.22 µM
  TGI: > 100 µM
PC-3 prostate
  GI50: 1.68 µM
  TGI: 10.4 µM
SW-620 colon
  GI50: 0.847 µM
  TGI: 14.7 µM
HCT-15 colon
  GI50: 1.05 µM
  TGI: 8.62 µM
A498 renal
  GI50: 11.8 µM
  TGI: 27.3 µM
OVCAR-5 ovarian
  GI50: 10 µM
  TGI: 43.2 µM
NCI-H460 lung
  GI50: 2.93 µM
  TGI: 18.5 µM
ACHN renal
  GI50: 6.43 µM
  TGI: 49.2 µM
MOLT-4 leukemia
  GI50: 1.36 µM
  TGI: > 100 µM
DU-145 prostate
  GI50: 3.8 µM
  TGI: 12.1 µM
MDA-MB-435
  GI50: 0.234 µM
  TGI: 1.61 µM
MALME-3M melanoma
  GI50: 1.17 µM
  TGI: 14.1 µM
NCI-H226 lung
  GI50: 1.27 µM
  TGI: 6.86 µM
SF-268 CNS
  GI50: 3.02 µM
  TGI: 13.9 µM
M14 melanoma
  GI50: 1.66 µM
  TGI: 7.71 µM
TK-10 renal
  GI50: 3.45 µM
  TGI: 27.3 µM
SK-MEL-2 melanoma
  GI50: 12.5 µM
  TGI: > 23.8 µM
RPMI-8226 leukemia
  GI50: 0.985 µM
  TGI: > 20.3 µM
